Experimental data: BindingDB's records for patent US10961200 (Department Of Health And Human Services, 2021)

Biological target: L-lactate dehydrogenase A chain (Homo sapiens, UniProt P00338)
Test: Biochemical Assay
From the text: Test compounds were placed in a Greiner Bio-One (Monroe, N.C.) 1536-well black solid bottom assay plate. 200 millimolar (mM) Tris HCl, pH 7.4, 100 micromolar (M) EDTA and 0.01% TWEEN-20 , final concentration, was used as the assay buffer. The LDHA reagent was 2 nanomolar (nM) Human LDHA (Meridian Life Science, Inc., Memphis, Tenn.), final concentration, in assay buffer.

IC50, < 100 nM:
NS(=O)(=O)c1ccc(Cc2c(-c3cccc(Nc4ccccc4)c3)nn(-c3nc(C(=O)O)cs3)c2CC2CC2)cc1 [US10961200, Compound 485]
NS(=O)(=O)c1ccc(Cc2cn(-c3nc(C(=O)O)cs3)nc2-c2ccc(F)c(-c3ccccc3)c2)cc1 [US10961200, Compound 515]
CC(C)Oc1cccc(-c2nn(-c3nc(C(=O)O)cs3)c(CC3CC3)c2Cc2ccc(S(N)(=O)=O)cc2)c1 [US10961200, Compound 504]
